Entries after “also recorded” stand apart in the source; their conditions may differ.
target: T1, rMAO-A (Rattus norvegicus, UniProt P21396); assay: Inhibition of rMAO-A in crude rat brain mitochondria (5-HT substrate, HPLC-ED); type: biochemical; details: substrate 5-HT
T1 construct: using a suspension of crude rat brain mitochondria as enzyme source; from tissue; host or cells: rat brain (crude mitochondrial suspension)
T1 sequence (P21396 1-526): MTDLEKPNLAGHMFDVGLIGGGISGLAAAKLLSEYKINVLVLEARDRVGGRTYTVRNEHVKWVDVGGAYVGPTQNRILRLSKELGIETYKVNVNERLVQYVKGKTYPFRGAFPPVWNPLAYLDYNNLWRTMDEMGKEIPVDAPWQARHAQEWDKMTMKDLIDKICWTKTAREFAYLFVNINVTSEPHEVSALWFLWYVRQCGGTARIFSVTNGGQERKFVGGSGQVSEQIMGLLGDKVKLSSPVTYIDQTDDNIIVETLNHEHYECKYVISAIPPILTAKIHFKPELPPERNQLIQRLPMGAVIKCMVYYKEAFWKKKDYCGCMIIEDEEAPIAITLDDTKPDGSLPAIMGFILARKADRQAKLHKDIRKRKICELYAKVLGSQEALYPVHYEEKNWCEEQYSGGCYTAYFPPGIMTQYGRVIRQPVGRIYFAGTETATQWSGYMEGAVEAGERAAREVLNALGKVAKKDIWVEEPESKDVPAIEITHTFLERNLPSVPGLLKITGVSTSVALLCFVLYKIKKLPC
Description: (§1) Fourteen derivatives differing in the substitution pattern of the cinnamyl benzene ring were studied, these compounds were tested on rat MAO-A and B to determine their inhibitory activity MAO. A general screening was carried out at 10 µM finding moderate activity for some of the compounds against rMAO-B but none against rMAO-A. Thus, five molecules were identified as possibly selective IMAO-B.
(§2) The effect of coumarin derivatives on MAO-A and MAO-B were measured using a suspension of crude rat brain mitochondria as enzyme source. 4-Dimethylaminophenethylamine (4-DMAPEA, 2.5 µM) and 5-hydroxytryptamine (5-HT, […]) were used as substrates selective of MAO-B or MAO-A, respectively. Evaluation of the test compounds on rMAO activity was executed by measuring their effects on the production of 4-dimethylaminophenylacetic acid (DMAPAA) by rMAO-B and 5-hydroxyindoleacetic acid (5-HIAA) by rMAO-A with O2 using HPLC-ED (L-7110 LaChrom and amperometric detector L-3500 LaChrom Recipe, Hitachi, (Tokyo, Japan) (for more detail see methodological references). The IC50 values (average ± SD was measured in two independent experiments each in triplicate) were assessed representing percentage of inhibition in function of the negative logarithm of different inhibitor concentrations (10^−4 to 10^−8) using the GraphPad Prism software.

IC50 [µM] | Structure (SMILES)
> 10 | COc1ccc2cc(C(=O)/C=C/c3ccc(SC)cc3)c(=O)oc2c1 [ChC11]
> 10 | COc1ccc(OC)c(/C=C/C(=O)c2cc3ccc(OC)cc3oc2=O)c1 [ChC8, (E)-3-(3-(2,5-dimethoxyphenyl)acryloyl)-7-methoxy-2H-chromen-2-one]
> 10 | COc1ccc2cc(C(=O)/C=C/c3ccc(Br)cc3)c(=O)oc2c1 [ChC14, (E)-3-(3-(4-bromophenyl)acryloyl)-7-methoxy-2H-chromen-2-one]
> 10 | COc1ccc2cc(C(=O)/C=C/c3ccccc3OC)c(=O)oc2c1 [ChC3, (E)-7-methoxy-3-(3-(2-methoxyphenyl)acryloyl)-2H-chromen-2-one]
> 10 | COc1ccc2cc(C(=O)C=Cc3ccccc3)c(=O)oc2c1 [ChC1, 3-Cinnamoyl-7-methoxy-2H-chromen-2-one]
> 10 | COc1ccc2cc(C(=O)/C=C/c3ccc(N(C)C)cc3)c(=O)oc2c1 [ChC13, (E)-3-(3-(4-(dimethylamino)phenyl)acryloyl)-7-methoxy-2H-chromen-2-one]
> 10 | COc1ccc2cc(C(=O)/C=C/c3ccc(O)c(OC)c3)c(=O)oc2c1 [ChC10]
> 10 | COc1ccc2cc(C(=O)/C=C/c3cc(Br)c(OC)c(Br)c3)c(=O)oc2c1 [ChC12, (E)-3-(3-(3,5-dibromo-4-methoxyphenyl)acryloyl)-7-methoxy-2H-chromen-2-one]
> 10 | COc1ccc2cc(C(=O)/C=C/c3cccc(O)c3)c(=O)oc2c1 [ChC4, (E)-3-(3-(3-hydroxyphenyl)acryloyl)-7-methoxy-2H-chromen-2-one]
> 10 | COc1ccc2cc(C(=O)/C=C/c3ccccc3O)c(=O)oc2c1 [ChC2, (E)-3-(3-(2-Hydroxyphenyl)acryloyl)-7-methoxy-2H-chromen-2-one]
> 10 | COc1cccc(/C=C/C(=O)c2cc3ccc(OC)cc3oc2=O)c1 [ChC5, (E)-7-methoxy-3-(3-(3-methoxyphenyl)acryloyl)-2H-chromen-2-one]
> 10 | COc1ccc(/C=C/C(=O)c2cc3ccc(OC)cc3oc2=O)cc1 [ChC6, (E)-7-methoxy-3-(3-(4-methoxyphenyl)acryloyl)-2H-chromen-2-one]
> 10 | COc1ccc2cc(C(=O)/C=C/c3ccc4c(c3)OCO4)c(=O)oc2c1 [ChC9, (E)-3-(3-(benzo[d][1,3]dioxol-5-yl)acryloyl)-7-methoxy-2H-chromen-2-one]

target: T2, rMAO-B (Rattus norvegicus, UniProt P19643); assay: Inhibition of rMAO-B in crude rat brain mitochondria (4-DMAPEA substrate, HPLC-ED); type: biochemical; details: not given
T2 construct: using a suspension of crude rat brain mitochondria as enzyme source; from tissue; host or cells: rat brain (crude mitochondrial suspension)
T2 sequence (P19643 1-520): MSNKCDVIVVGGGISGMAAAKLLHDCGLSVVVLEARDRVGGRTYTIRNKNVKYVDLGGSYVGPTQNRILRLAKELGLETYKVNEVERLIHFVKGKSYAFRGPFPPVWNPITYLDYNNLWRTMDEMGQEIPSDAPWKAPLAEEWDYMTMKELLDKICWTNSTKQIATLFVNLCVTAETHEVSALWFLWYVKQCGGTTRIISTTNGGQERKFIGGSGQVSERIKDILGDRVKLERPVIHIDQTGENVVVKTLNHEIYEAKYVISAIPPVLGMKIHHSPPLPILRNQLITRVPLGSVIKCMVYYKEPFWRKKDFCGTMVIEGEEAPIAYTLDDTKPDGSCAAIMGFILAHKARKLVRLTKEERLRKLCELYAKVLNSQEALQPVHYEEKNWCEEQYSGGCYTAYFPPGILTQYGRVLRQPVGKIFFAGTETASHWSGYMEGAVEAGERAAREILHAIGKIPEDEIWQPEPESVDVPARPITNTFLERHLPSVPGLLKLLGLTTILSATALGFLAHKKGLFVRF
Description: as §1, §2

Structure (SMILES) | rMAO-B inhibitory activity in vitro (in words)
COc1ccc2cc(C(=O)/C=C/c3ccc(O)c(OC)c3)c(=O)oc2c1 [ChC10] | loss of the inhibitory activity
COc1ccc2cc(C(=O)/C=C/c3ccccc3O)c(=O)oc2c1 [ChC2, (E)-3-(3-(2-Hydroxyphenyl)acryloyl)-7-methoxy-2H-chromen-2-one] | loss of the inhibitory activity; also recorded: does not show in vitro activity

same assay, conditions: crude rat brain mitochondria; substrate 4-DMAPEA 2.5 µM

IC50 [µM] | Structure (SMILES)
5.88 ± 0.57 | COc1ccc2cc(C(=O)/C=C/c3ccc(SC)cc3)c(=O)oc2c1 [ChC11]
> 10 | COc1ccc(OC)c(/C=C/C(=O)c2cc3ccc(OC)cc3oc2=O)c1 [ChC8, (E)-3-(3-(2,5-dimethoxyphenyl)acryloyl)-7-methoxy-2H-chromen-2-one]
> 10 | COc1ccc2cc(C(=O)/C=C/c3ccc(Br)cc3)c(=O)oc2c1 [ChC14, (E)-3-(3-(4-bromophenyl)acryloyl)-7-methoxy-2H-chromen-2-one]
> 10 | COc1ccc2cc(C(=O)/C=C/c3ccccc3OC)c(=O)oc2c1 [ChC3, (E)-7-methoxy-3-(3-(2-methoxyphenyl)acryloyl)-2H-chromen-2-one]
> 10 | COc1ccc2cc(C(=O)C=Cc3ccccc3)c(=O)oc2c1 [ChC1, 3-Cinnamoyl-7-methoxy-2H-chromen-2-one]
> 10 | COc1ccc2cc(C(=O)/C=C/c3ccc(N(C)C)cc3)c(=O)oc2c1 [ChC13, (E)-3-(3-(4-(dimethylamino)phenyl)acryloyl)-7-methoxy-2H-chromen-2-one]
> 10 | COc1ccc2cc(C(=O)/C=C/c3ccc(O)c(OC)c3)c(=O)oc2c1 [ChC10]
> 10 | COc1ccc2cc(C(=O)/C=C/c3cc(Br)c(OC)c(Br)c3)c(=O)oc2c1 [ChC12, (E)-3-(3-(3,5-dibromo-4-methoxyphenyl)acryloyl)-7-methoxy-2H-chromen-2-one]
0.76 ± 0.08 | COc1ccc2cc(C(=O)/C=C/c3cccc(O)c3)c(=O)oc2c1 [ChC4, (E)-3-(3-(3-hydroxyphenyl)acryloyl)-7-methoxy-2H-chromen-2-one]
> 10 | COc1ccc2cc(C(=O)/C=C/c3ccccc3O)c(=O)oc2c1 [ChC2, (E)-3-(3-(2-Hydroxyphenyl)acryloyl)-7-methoxy-2H-chromen-2-one]
9.63 ± 0.9 | COc1cccc(/C=C/C(=O)c2cc3ccc(OC)cc3oc2=O)c1 [ChC5, (E)-7-methoxy-3-(3-(3-methoxyphenyl)acryloyl)-2H-chromen-2-one]
6.96 ± 0.07 | COc1ccc(/C=C/C(=O)c2cc3ccc(OC)cc3oc2=O)cc1 [ChC6, (E)-7-methoxy-3-(3-(4-methoxyphenyl)acryloyl)-2H-chromen-2-one]
3.71 ± 0.68 | COc1ccc2cc(C(=O)/C=C/c3ccc4c(c3)OCO4)c(=O)oc2c1 [ChC9, (E)-3-(3-(benzo[d][1,3]dioxol-5-yl)acryloyl)-7-methoxy-2H-chromen-2-one]

same assay, conditions: rMAO-B; relative to ChC4

Fold lower IMAO activity than ChC4 | Structure (SMILES)
approximately 12 fold | COc1cccc(/C=C/C(=O)c2cc3ccc(OC)cc3oc2=O)c1 [ChC5, (E)-7-methoxy-3-(3-(3-methoxyphenyl)acryloyl)-2H-chromen-2-one]
